Source: patent US10662229B2, “Spider venom peptides and methods of use for modulating sodium channels” (priority 2016, dated 2020)
Where a SMILES comes first, the peptide text is derived from it. Bridges are numbered along the chain shown (N, C = ends).

Experiments:
Type in all cases: cell-based
hNav1.2 = target: T1, hNav1.2 (Homo sapiens, UniProt Q99250); assay: FLIPR membrane potential assay, hNav1.2; conditions: for Selectivity for Nav1.7, Nav subtype 1.2: membrane potential assay
T1 construct: host or cells: HEK293
Procedure: (§1) HEK293 cells stably expressing hNav1.1, hNav1.2, hNav1.3, hNav1.4, hNav1.5, hNav1.6, hNav1.7 and […] (SB Drug Discovery, Glasgow, UK) were cultured in minimum essential media (MEM) containing 10% v/v FBS supplemented with L-glutamine (2 mM) and selection antibiotics G-418 (0.5 mg/mL), blasticidin (2-4 μg/mL) and zeocin (0.5 mg/mL) as recommended by the manufacturer. CHO cells stably expressing hNav1.8 in a tetracycline-inducible system (Chantest, OH, USA) were cultured in Ham's F-12 containing 10% v/v FBS and selection antibiotics as recommended by the manufacturer. To induce hNav1.8 expression, cells were cultured in the presence of tetracycline (1 μg/mL) for 24 h at 27° C. Cells were grown in a humidified 5% CO2 incubator at 37° C., grown to 70-80% confluence, and passaged every 3-4 days using TrypLE Express (Invitrogen).
(§2) Cells were plated 48 h before the assay on 384-well black walled imaging plates at a density of 10,000 to 15,000 cells per well and were loaded with red membrane potential dye for 30 min at 37° C. (Molecular Devices, CA, USA). One vial of bulk red membrane potential dye was reconstituted to a 10× stock solution with PSS and stored at −20° C. and diluted to 1× solution with PSS on the day of the assay. […] Changes in membrane potential were assessed using the FLIPR^TETRA (excitation 515 to 545 nm, emission 565 to 625 nm) every second for 300 s after adding agonists.

hNav1.5 = target: T2, hNav1.5 (Homo sapiens, UniProt Q14524); assay: FLIPR membrane potential assay, hNav1.5; conditions: for Selectivity for Nav1.7, Nav subtype 1.5: membrane potential assay
T2 construct: host or cells: HEK293
Procedure: as §1, §2

hNav1.6 = target: T3, hNav1.6 (Homo sapiens, UniProt Q9UQD0); assay: FLIPR membrane potential assay, hNav1.6; conditions: for Selectivity for Nav1.7, Nav subtype 1.6: membrane potential assay
T3 construct: host or cells: HEK293
Procedure: as §1, §2

hNav1.1 = target: T4, hNav1.1 (Homo sapiens, UniProt P35498); assay: FLIPR membrane potential assay, hNav1.1; conditions: for Selectivity for Nav1.7, Nav subtype 1.1: membrane potential assay
T4 construct: host or cells: HEK293
Procedure: as §1, §2

hNav1.4 = target: T5, hNav1.4 (Homo sapiens, UniProt P35499); assay: FLIPR membrane potential assay, hNav1.4; conditions: for Selectivity for Nav1.7, Nav subtype 1.4: membrane potential assay
T5 construct: host or cells: HEK293
Procedure: as §1, §2

hNav1.8 = target: T6, hNav1.8 (Homo sapiens, UniProt Q9Y5Y9); assay: FLIPR membrane potential assay, hNav1.8; conditions: for Selectivity for Nav1.7, Nav subtype 1.8: membrane potential assay
T6 construct: host or cells: HEK293
Procedure: as §1, §2

hNav1.3 = target: T7, hNav1.3 (Homo sapiens, UniProt Q9NY46); assay: FLIPR membrane potential assay, hNav1.3; conditions: for Selectivity for Nav1.7, Nav subtype 1.3: membrane potential assay
T7 construct: host or cells: HEK293
Procedure: as §1, §2

hNav1.7 = target: T8, hNav1.7 (Homo sapiens, UniProt Q15858); assay: FLIPR membrane potential assay, hNav1.7; conditions: for Selectivity for Nav1.7, Nav subtype 1.7: membrane potential assay, reference subtype
T8 construct: host or cells: HEK293
Procedure: as §1, §2

T8 sequence (Q15858 whole entry): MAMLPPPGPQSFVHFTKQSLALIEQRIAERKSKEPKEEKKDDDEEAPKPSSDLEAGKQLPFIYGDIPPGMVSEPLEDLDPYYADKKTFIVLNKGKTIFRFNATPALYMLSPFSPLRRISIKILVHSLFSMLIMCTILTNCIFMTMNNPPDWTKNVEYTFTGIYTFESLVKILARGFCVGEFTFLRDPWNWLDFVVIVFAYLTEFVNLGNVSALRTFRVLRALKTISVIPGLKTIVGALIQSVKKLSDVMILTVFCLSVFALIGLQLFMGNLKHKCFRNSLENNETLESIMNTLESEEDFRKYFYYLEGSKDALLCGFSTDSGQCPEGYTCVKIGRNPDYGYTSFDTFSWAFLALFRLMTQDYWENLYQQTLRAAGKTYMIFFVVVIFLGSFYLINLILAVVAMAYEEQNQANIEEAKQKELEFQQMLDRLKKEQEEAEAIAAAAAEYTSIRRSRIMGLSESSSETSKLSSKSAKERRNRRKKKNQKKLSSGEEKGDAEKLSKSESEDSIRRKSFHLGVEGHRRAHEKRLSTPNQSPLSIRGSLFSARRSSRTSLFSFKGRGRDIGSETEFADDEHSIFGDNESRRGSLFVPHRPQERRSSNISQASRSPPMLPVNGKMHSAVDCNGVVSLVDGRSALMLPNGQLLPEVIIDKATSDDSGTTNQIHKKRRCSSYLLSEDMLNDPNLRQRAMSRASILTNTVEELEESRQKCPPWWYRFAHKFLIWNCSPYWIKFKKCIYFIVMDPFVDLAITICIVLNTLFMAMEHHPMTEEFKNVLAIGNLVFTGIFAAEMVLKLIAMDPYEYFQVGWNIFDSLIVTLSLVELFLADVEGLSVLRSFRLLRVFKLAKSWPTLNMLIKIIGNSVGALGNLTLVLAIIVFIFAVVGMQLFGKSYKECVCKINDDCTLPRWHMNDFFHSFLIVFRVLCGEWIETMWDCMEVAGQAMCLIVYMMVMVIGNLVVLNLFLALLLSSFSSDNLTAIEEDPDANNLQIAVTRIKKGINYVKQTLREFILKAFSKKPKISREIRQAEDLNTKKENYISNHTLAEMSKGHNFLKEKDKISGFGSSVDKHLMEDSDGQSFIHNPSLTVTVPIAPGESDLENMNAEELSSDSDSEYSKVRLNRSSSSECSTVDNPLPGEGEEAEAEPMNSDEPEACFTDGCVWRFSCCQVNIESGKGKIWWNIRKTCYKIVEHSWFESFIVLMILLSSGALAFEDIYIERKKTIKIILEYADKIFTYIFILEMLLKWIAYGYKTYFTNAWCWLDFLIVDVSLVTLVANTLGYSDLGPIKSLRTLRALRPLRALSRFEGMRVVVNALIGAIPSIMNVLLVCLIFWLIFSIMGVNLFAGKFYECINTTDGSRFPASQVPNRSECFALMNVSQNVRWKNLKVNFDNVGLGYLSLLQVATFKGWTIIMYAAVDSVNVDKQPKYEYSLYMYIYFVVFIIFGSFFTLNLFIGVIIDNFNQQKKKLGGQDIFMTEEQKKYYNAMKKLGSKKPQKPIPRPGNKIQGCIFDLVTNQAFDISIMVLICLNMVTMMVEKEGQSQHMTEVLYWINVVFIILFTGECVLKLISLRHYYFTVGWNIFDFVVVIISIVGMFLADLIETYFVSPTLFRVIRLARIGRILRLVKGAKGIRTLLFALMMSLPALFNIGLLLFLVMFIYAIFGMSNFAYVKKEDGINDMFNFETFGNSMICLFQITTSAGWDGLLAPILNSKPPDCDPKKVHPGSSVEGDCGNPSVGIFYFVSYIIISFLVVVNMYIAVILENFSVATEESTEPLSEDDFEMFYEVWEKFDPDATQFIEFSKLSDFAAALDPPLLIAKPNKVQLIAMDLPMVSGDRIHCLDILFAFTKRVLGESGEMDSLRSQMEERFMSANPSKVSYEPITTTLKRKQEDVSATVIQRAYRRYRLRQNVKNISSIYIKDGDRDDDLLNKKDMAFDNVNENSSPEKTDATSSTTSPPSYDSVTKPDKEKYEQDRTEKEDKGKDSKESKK
T6 sequence (Q9Y5Y9 whole entry): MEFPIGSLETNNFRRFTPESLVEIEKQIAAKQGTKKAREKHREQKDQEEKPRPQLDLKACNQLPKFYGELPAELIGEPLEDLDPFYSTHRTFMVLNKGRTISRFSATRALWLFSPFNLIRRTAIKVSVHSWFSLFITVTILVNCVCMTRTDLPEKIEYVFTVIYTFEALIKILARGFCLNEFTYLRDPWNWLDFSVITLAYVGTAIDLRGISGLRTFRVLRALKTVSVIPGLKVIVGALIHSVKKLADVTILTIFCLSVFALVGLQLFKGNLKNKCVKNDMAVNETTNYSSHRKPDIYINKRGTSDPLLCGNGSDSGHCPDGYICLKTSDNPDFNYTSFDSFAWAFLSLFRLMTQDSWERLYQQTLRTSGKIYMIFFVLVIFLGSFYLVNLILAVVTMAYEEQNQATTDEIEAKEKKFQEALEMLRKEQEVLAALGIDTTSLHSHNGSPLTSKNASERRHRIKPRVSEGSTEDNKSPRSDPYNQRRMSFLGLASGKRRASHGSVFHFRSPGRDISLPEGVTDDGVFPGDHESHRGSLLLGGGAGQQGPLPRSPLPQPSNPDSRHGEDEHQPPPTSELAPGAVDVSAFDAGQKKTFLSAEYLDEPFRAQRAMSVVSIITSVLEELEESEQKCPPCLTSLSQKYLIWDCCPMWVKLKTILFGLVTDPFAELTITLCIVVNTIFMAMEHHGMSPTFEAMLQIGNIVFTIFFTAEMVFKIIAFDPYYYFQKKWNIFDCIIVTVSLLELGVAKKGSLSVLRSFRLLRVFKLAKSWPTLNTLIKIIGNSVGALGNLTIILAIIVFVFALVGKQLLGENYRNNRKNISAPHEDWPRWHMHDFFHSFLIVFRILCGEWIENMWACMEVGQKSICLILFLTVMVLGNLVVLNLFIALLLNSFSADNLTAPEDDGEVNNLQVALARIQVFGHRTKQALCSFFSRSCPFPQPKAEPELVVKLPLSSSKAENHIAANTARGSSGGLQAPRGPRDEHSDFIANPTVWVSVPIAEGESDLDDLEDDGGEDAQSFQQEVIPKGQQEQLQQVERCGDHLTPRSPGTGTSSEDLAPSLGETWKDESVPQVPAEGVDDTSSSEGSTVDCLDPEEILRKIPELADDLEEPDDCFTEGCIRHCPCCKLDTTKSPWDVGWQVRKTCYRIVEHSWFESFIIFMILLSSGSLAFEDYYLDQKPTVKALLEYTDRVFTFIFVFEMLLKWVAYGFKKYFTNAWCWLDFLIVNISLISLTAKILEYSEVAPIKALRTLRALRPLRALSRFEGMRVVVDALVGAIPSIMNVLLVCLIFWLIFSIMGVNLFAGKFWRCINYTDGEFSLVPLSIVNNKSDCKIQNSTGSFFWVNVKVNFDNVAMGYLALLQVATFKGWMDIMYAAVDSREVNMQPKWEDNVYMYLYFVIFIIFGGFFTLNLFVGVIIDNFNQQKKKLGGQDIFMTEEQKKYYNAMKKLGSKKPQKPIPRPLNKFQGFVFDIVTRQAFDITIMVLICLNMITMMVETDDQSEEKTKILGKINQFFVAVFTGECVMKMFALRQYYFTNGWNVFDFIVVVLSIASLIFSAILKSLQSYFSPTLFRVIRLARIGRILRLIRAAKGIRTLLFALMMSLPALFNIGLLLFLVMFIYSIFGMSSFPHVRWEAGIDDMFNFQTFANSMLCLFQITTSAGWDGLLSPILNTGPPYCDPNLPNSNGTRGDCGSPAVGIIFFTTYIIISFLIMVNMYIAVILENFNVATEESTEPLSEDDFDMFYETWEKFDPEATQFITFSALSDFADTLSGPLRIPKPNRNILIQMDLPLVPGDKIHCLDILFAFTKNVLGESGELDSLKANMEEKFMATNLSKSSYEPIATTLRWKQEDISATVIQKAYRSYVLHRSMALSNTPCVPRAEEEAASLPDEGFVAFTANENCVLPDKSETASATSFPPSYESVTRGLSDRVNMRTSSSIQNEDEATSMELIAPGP

SMILES	IC50 (hNav1.2) [nM]	Selectivity for Nav1.7, Nav subtype 1.2 (hNav1.2)	IC50 (hNav1.5) [nM]	Selectivity for Nav1.7, Nav subtype 1.5 (hNav1.5)	IC50 (hNav1.6) [nM]	Selectivity for Nav1.7, Nav subtype 1.6 (hNav1.6)	IC50 (hNav1.1) [nM]	Selectivity for Nav1.7, Nav subtype 1.1 (hNav1.1)	IC50 (hNav1.4) [nM]	Selectivity for Nav1.7, Nav subtype 1.4 (hNav1.4)	IC50 (hNav1.8) [nM]	Selectivity for Nav1.7, Nav subtype 1.8 (hNav1.8)	IC50 (hNav1.3) [nM]	Selectivity for Nav1.7, Nav subtype 1.3 (hNav1.3)	IC50 (hNav1.7) [nM]	Selectivity for Nav1.7, Nav subtype 1.7 (hNav1.7)
CSCC[C@@H]1NC(=O)[C@H](Cc2ccc(O)cc2)NC(=O)[C@H](CCCNC(=N)N)NC(=O)[C@@H](NC(=O)[C@@H](N)CC(=O)O)CSSC[C@@H]2NC(=O)[C@@H]3CSSC[C@@H](C(=O)N[C@@H](C)C(=O)N[C@@H](Cc4c[nH]c5ccccc45)C(=O)N[C@@H](CC(=O)O)C(=O)N[C@@H](Cc4ccccc4)C(=O)N[C@H](C(=O)N[C@@H](Cc4ccccc4)C(=O)N[C@H](C(=O)O)[C@@H](C)O)[C@@H](C)O)NC(=O)[C@H](Cc4ccc(O)cc4)NC(=O)[C@H](CCCCN)NC(=O)[C@H](CCSC)NC(=O)[C@H](CCCCN)NC(=O)[C@H](CCCNC(=N)N)NC(=O)[C@H](CCCCN)NC(=O)[C@H](CSSC[C@H](NC(=O)[C@H](CCCCN)NC(=O)CNC(=O)[C@H](Cc4ccccc4)NC1=O)C(=O)N[C@@H](CCC(=O)O)C(=O)N[C@@H](CCCCN)C(=O)N[C@@H](CC(=O)O)C(=O)N[C@@H](CCC(=O)O)C(=O)N[C@@H](CC(=O)O)C(=O)N3)NC(=O)CNC(=O)[C@H](CC(C)C)NC(=O)[C@H](Cc1c[nH]cn1)NC(=O)[C@H](CCCCN)NC2=O [[D8K]Pnc1a] (H-DCRYMFGKCEKDEDCCKHLGCKRKMKYCAWDFTFT-OH; disulfide 2-16, 9-21, 15-28)	40	3	> 30000	>2000	> 30000	>2000	241	19	663	52	> 30000	>2000	2000	159	13	1
CSCC[C@@H]1NC(=O)[C@H](Cc2ccc(O)cc2)NC(=O)[C@H](CCCNC(=N)N)NC(=O)[C@@H](NC(=O)[C@@H](N)CC(=O)O)CSSC[C@@H]2NC(=O)[C@@H]3CSSC[C@@H](C(=O)N[C@@H](C)C(=O)N[C@@H](Cc4c[nH]c5ccccc45)C(=O)N[C@@H](CC(=O)O)C(=O)N[C@@H](Cc4ccccc4)C(=O)N[C@H](C(=O)N[C@@H](Cc4ccccc4)C(=O)N[C@H](C(=O)O)[C@@H](C)O)[C@@H](C)O)NC(=O)[C@H](Cc4ccc(O)cc4)NC(=O)[C@H](CCCCN)NC(=O)[C@H](CCSC)NC(=O)[C@H](CCCCN)NC(=O)[C@H](CCCCN)NC(=O)[C@H](CCCCN)NC(=O)[C@H](CSSC[C@H](NC(=O)[C@H](CC(=O)O)NC(=O)CNC(=O)[C@H](Cc4ccccc4)NC1=O)C(=O)N[C@@H](CCC(=O)O)C(=O)N[C@@H](CCCCN)C(=O)N[C@@H](CC(=O)O)C(=O)N[C@@H](CCC(=O)O)C(=O)N[C@@H](CC(=O)O)C(=O)N3)NC(=O)CNC(=O)[C@H](CC(C)C)NC(=O)[C@H](Cc1c[nH]cn1)NC(=O)[C@H](CCCCN)NC2=O [[R23K]Pnc1a] (H-DCRYMFGDCEKDEDCCKHLGCKKKMKYCAWDFTFT-OH; disulfide 2-16, 9-21, 15-28)	3000	14	> 30000	>120	16000	63	8000	33	10000	40	> 30000	>120	5000	19	251	1
CSCC[C@@H]1NC(=O)[C@H](Cc2ccc(O)cc2)NC(=O)[C@H](CCCNC(=N)N)NC(=O)[C@@H](NC(=O)[C@@H](N)CC(=O)O)CSSC[C@@H]2NC(=O)[C@@H]3CSSC[C@@H](C(=O)N[C@@H](C)C(=O)N[C@@H](Cc4c[nH]c5ccccc45)C(=O)N[C@@H](CC(=O)O)C(=O)N[C@@H](Cc4ccccc4)C(=O)N[C@H](C(=O)N[C@@H](Cc4ccccc4)C(=O)N[C@H](C(=O)O)[C@@H](C)O)[C@@H](C)O)NC(=O)[C@H](Cc4ccc(O)cc4)NC(=O)[C@H](CCCCN)NC(=O)[C@H](CCSC)NC(=O)[C@H](CCCCN)NC(=O)[C@H](CCCNC(=N)N)NC(=O)[C@H](CCCCN)NC(=O)[C@H](CSSC[C@H](NC(=O)[C@H](CC(=O)O)NC(=O)CNC(=O)[C@H](Cc4ccccc4)NC1=O)C(=O)N[C@@H](CCCCN)C(=O)N[C@@H](CCCCN)C(=O)N[C@@H](CC(=O)O)C(=O)N[C@@H](CCC(=O)O)C(=O)N[C@@H](CC(=O)O)C(=O)N3)NC(=O)CNC(=O)[C@H](CC(C)C)NC(=O)[C@H](Cc1c[nH]cn1)NC(=O)[C@H](CCCCN)NC2=O [[E10K]Pnc1a] (H-DCRYMFGDCKKDEDCCKHLGCKRKMKYCAWDFTFT-OH; disulfide 2-16, 9-21, 15-28)	172	4	13000	326	820	20	384	9	2000	49	> 30000	>700	5000	128	41	1
CSCC[C@@H]1NC(=O)[C@H](Cc2ccc(O)cc2)NC(=O)[C@H](CCCNC(=N)N)NC(=O)[C@@H](NC(=O)[C@@H](N)CC(=O)O)CSSC[C@@H]2NC(=O)[C@@H]3CSSC[C@@H](C(=O)N[C@@H](C)C(=O)N[C@@H](Cc4c[nH]c5ccccc45)C(=O)N[C@@H](CC(=O)O)C(=O)N[C@@H](Cc4ccccc4)C(=O)N[C@H](C(=O)N[C@@H](Cc4ccccc4)C(=O)N[C@H](C(=O)O)[C@@H](C)O)[C@@H](C)O)NC(=O)[C@H](Cc4ccc(O)cc4)NC(=O)[C@H](CCCCN)NC(=O)[C@H](CCSC)NC(=O)[C@H](CCCCN)NC(=O)[C@H](CCCNC(=N)N)NC(=O)[C@H](CCCCN)NC(=O)[C@H](CSSC[C@H](NC(=O)CNC(=O)CNC(=O)[C@H](Cc4ccccc4)NC1=O)C(=O)N[C@@H](CCC(=O)O)C(=O)N[C@@H](CCCCN)C(=O)N[C@@H](CC(=O)O)C(=O)N[C@@H](CCC(=O)O)C(=O)N[C@@H](CC(=O)O)C(=O)N3)NC(=O)CNC(=O)[C@H](CC(C)C)NC(=O)[C@H](Cc1c[nH]cn1)NC(=O)[C@H](CCCCN)NC2=O [[D8G]Pnc1a] (H-DCRYMFGGCEKDEDCCKHLGCKRKMKYCAWDFTFT-OH; disulfide 2-16, 9-21, 15-28)	301	6	> 30000	>616	2000	46	2000	35	2000	48	> 30000	>616	658	13	49	1
